Measurements as given in patent EP1247803A2, “Indolinone compounds suitable for modulation of protein kinases” (Sugen, Inc., priority 1996, dated 1998).

Key:
PDGF-R = PDGF-R (Homo sapiens, UniProt P09619); assay: PDGF-R ELISA; type: cell-based
Text: A PDGF-R ELISA is described in International Patent Publication No. WO 96/40116, published December 19, 1996 by Tang et al.

FLK-1 receptor = target: T1, FLK-1 receptor (Mus musculus, UniProt P35918); assay: FLK-1 ELISA (kinase activity of the FLK-1 receptor in FLK-1/NIH3T3 cells, VEGF stimulated); type: cell-based; set-up: concentration or dose not given beside the values
T1 construct: expressed in transfected cells; host or cells: NIH3T3 C7#3
T1 sequence (P35918 20-1345): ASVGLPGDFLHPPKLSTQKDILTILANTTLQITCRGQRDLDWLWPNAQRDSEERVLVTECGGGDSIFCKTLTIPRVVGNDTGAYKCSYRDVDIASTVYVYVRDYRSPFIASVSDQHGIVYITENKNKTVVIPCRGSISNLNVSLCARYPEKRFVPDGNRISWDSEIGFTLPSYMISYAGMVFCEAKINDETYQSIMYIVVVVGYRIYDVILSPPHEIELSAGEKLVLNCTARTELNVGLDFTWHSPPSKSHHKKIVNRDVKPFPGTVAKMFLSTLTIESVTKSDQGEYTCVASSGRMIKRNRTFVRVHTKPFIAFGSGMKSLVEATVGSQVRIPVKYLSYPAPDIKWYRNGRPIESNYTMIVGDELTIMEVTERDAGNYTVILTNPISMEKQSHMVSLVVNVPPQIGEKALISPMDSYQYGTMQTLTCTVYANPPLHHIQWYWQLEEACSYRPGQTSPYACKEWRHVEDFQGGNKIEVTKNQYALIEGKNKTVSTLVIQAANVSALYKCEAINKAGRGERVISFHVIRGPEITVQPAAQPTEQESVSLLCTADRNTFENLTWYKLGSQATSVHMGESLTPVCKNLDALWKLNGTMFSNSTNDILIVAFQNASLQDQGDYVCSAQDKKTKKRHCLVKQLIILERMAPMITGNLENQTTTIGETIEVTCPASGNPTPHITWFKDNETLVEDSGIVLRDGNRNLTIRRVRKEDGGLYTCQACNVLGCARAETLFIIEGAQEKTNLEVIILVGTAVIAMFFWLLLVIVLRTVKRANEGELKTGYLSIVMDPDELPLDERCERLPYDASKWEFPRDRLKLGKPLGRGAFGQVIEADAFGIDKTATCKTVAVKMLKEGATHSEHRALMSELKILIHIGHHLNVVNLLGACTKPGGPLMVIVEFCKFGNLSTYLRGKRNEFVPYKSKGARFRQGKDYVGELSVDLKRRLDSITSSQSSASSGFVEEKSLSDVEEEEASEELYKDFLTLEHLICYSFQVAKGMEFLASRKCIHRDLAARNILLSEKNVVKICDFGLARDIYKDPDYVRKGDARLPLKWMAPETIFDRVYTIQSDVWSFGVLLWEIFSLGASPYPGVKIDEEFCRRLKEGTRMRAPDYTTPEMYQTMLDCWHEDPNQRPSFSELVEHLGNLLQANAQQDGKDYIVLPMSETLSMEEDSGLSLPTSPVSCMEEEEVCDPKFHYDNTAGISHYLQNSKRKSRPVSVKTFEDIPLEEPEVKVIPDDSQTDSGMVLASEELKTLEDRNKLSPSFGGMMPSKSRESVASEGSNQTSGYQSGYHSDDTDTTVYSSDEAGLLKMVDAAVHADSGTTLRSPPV
Summary of the method: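 FLK-1-expressing NIH3T3 C7#3 cells, starved overnight in 0.1% FBS medium, were treated with compounds at a 1:200 final dilution (0.5% DMSO) for 2 h at 37 °C, with VEGF stimulation. FLK-1 kinase activity was read by ELISA on anti-rabbit IgG plates using affinity-purified anti-FLK-1 antiserum.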

PDGF-R, sequence (P09619 33-1106, species assumed): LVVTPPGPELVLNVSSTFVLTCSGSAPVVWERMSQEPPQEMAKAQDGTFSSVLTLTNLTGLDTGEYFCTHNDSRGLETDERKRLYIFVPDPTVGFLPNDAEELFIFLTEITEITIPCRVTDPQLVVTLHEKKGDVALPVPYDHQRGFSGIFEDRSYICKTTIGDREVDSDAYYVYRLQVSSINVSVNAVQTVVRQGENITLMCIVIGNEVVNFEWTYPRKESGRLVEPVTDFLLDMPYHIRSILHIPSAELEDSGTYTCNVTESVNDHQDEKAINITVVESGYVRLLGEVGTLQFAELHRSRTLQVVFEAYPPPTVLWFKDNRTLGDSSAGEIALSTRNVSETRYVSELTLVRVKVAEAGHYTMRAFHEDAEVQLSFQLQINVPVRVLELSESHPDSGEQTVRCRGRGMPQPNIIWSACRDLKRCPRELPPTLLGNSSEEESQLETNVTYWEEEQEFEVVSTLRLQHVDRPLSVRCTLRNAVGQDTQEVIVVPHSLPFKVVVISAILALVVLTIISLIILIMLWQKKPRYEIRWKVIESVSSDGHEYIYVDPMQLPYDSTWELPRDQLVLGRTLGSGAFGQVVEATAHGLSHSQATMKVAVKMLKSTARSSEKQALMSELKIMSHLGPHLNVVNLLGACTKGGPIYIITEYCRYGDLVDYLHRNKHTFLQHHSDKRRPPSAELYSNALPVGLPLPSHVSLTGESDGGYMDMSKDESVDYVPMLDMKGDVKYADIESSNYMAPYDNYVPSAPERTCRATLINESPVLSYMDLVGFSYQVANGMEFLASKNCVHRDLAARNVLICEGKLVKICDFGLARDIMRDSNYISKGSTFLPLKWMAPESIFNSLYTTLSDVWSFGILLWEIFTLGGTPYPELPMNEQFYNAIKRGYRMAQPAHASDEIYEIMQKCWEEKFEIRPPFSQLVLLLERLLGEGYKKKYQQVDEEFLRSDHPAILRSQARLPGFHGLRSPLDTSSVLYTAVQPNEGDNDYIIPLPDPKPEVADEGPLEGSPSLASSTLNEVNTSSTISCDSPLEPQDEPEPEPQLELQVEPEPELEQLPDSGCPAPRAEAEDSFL

Row | SMILES | PDGF Kinase %Inhibition (PDGF-R) [%] | Fik Kinase %Inhibition (FLK-1 receptor) [%]
1 | O=C1Nc2ccc(I)cc2C1=Cc1ccc(O)c(O)c1O [10723/B02] | 29.0 | -0.3
2 | O=C1Nc2ccc(CCCl)cc2C1=Cc1ccc(O)cc1O [10723/G08] | 7.5 | -22.9
3 | CC(C)(C)c1cc(C=C2C(=O)Nc3ccc(CCCl)cc32)cc(Cl)c1O [10722/G08] | 12.9 | 8.2
4 | CC(C)(C)c1cc(C=C2C(=O)Nc3ccc(CCCl)cc32)cc([N+](=O)[O-])c1O [10722/G02] | 14.6 | 15.1
5 | O=C1Nc2c(Br)cc(Br)cc2C1=Cc1ccccc1Br [10723/A07] | 22.1 | -6.1
6 | CC(=O)Oc1ccc(C=C2C(=O)Nc3c(Br)cc(Br)cc32)cc1OC(C)=O [10723/A05] | 17.9 | -17.8
7 | COc1cccc(C=C2C(=O)Nc3ccc(Br)c(C)c32)c1O [10723/C03] | 42.9 | -3.1
8 | CNS(=O)(=O)c1ccc2c(c1)C(=Cc1[nH]c(C)c(Br)c1Br)C(=O)N2 [10717/D11] |  | 11.6
9 | O=C1Nc2ccc(CCCl)cc2C1=Cc1ccc(O)c(O)c1O [10723/G02] | 13.8 | -1.6
10 | O=C1Nc2ccc(S(=O)(=O)N3CCOCC3)cc2C1=Cc1cc(O)c(O)c(Br)c1 [10723/F04] | 21.4 | 12.3
11 | COc1cccc(C=C2C(=O)Nc3c(Br)cc(Br)cc32)c1O [10723/A03] | 11.7 | 1.2
12 | Cn1cccc1C=C1C(=O)Nc2ccc(S(=O)(=O)Nc3ccc(C(F)(F)F)cc3)cc21 [10717/E04] |  | 6.1
13 | CC(=O)Oc1ccc(C=C2C(=O)Nc3ccc(CCCl)cc32)cc1OC(C)=O [10723/G05] | 2.0 | -9.4
14 | O=C1Nc2ccc(CCCl)cc2C1=Cc1ccc(F)cc1F [10722/G06] | -6.0 | 7.4
15 | COc1cccc(C=C2C(=O)Nc3ccc(S(=O)(=O)Nc4ccc(C(F)(F)F)cc4)cc32)c1O [10723/E03] | 47.1 | 8.7
16 | O=C1Nc2ccc(I)cc2C1=Cc1cc(O)c(O)c(Br)c1 [10723/B04] | 40.1 | 18.7
17 | Cc1cc(C=C2C(=O)Nc3ccc(CCCl)cc32)ccc1O [10723/G06] | -0.8 | 14.1
18 | CNS(=O)(=O)c1ccc2c(c1)C(=Cc1cccc(Br)c1)C(=O)N2 [10723/D10] | 21.4 | 6.5
19 | COc1ccc(C=C2C(=O)Nc3ccc(CCCl)cc32)c(O)c1 [10723/G09] | -2.9 | -1.8
20 | Cc1c(Br)ccc2c1C(=Cc1ccc(O)c(O)c1O)C(=O)N2 [10723/C02] | 39.4 | 9.6
21 | CNS(=O)(=O)c1ccc2c(c1)C(=Cc1ccc(O)c(O)c1O)C(=O)N2 [10723/D02] | 22.1 | 2.0

Row | SMILES | PDGF Kinase %Inhibition (PDGF-R) [%] | Fik Kinase %Inhibition (FLK-1 receptor) [%]
22 | Cc1cc(C=C2C(=O)Nc3ccc(S(=O)(=O)Nc4ccc(C(F)(F)F)cc4)cc32)ccc1O [10723/E06] | 18.6 | 19.3
23 | Cc1c(Br)ccc2c1C(=Cc1cc(O)c(O)c(Br)c1)C(=O)N2 [10723/C04] | 36.7 | 8.8
24 | O=C1Nc2ccc(CCCl)cc2C1=Cc1ccccc1Br [10723/G07] | -5.6 | 14.2
25 | COc1ccc(C=C2C(=O)Nc3c(Br)cc(Br)cc32)c(O)c1 [10723/A09] | 42.9 | -1.0
26 | CNS(=O)(=O)c1ccc2c(c1)C(=Cc1cc(C(C)(C)C)cc(C(C)(C)C)c1O)C(=O)N2 [10723/D11] | 24.9 | 14.8
27 | O=C1Nc2ccc(S(=O)(=O)Nc3ccc(C(F)(F)F)cc3)cc2C1=Cc1ccc(O)cc1O [10723/E08] | 26.3 | -0.4
28 | O=C1Nc2ccc(S(=O)(=O)Nc3ccc(C(F)(F)F)cc3)cc2C1=Cc1ccc(O)c(O)c1O [10723/E02] | 46.4 | 8.1
29 | COc1cccc(C=C2C(=O)Nc3ccc(CCCl)cc32)c1O [10723/G03] | 6.2 | 4.3
30 | O=C1Nc2ccc(CCCl)cc2C1=Cc1c(O)cc(O)cc1O [10722/G03] | -3.7 | 5.3
31 | Cc1c(Br)ccc2c1C(=Cc1cc(C(C)(C)C)cc(C(C)(C)C)c1O)C(=O)N2 [10723/C11] | 8.9 | 9.5
32 | O=C1Nc2ccc(I)cc2C1=Cc1cccc(Br)c1 [10723/B10] | 17.2 | 5.8
33 | Cc1c(Br)ccc2c1C(=Cc1cccc(Br)c1)C(=O)N2 [10723/C10] | 25.6 | 9.5
34 | O=C1Nc2ccc(S(=O)(=O)N3CCOCC3)cc2C1=Cc1ccc(O)c(O)c1O [10723/F02] | 1.3 | 10.3
35 | CC(=O)Oc1ccc(C=C2C(=O)Nc3ccc(S(=O)(=O)N4CCOCC4)cc32)cc1OC(C)=O [10723/F05] | -7.7 | -6.4
36 | O=C1Nc2ccc(CCCl)cc2C1=Cc1ccc(C(F)(F)F)cc1 [10722/G11] | 0.3 | 0.6
37 | COc1ccc(C=C2C(=O)Nc3ccc(I)cc32)c(O)c1 [10723/B09] | 27.6 | 2.7
38 | Cc1cc(C=C2C(=O)Nc3ccc(Br)c(C)c32)ccc1O [10723/C06] | 26.3 | 17.8
39 | O=C1Nc2c(Br)cc(Br)cc2C1=Cc1cccc(Br)c1 [10723/A10] | 34.6 | -3.1
40 | CNS(=O)(=O)c1ccc2c(c1)C(=Cc1ccc(O)cc1O)C(=O)N2 [10723/D08] | 31.1 | -4.5
41 | CNS(=O)(=O)c1ccc2c(c1)C(=Cc1ccc(OC(C)=O)c(OC(C)=O)c1)C(=O)N2 [10723/D05] | 8.2 | -6.1
42 | COc1cccc(C=C2C(=O)Nc3ccc(S(=O)(=O)N4CCOCC4)cc32)c1O [10723/F03] | 1.3 | 4.4

Row | SMILES | PDGF Kinase %Inhibition (PDGF-R) [%] | Fik Kinase %Inhibition (FLK-1 receptor) [%]
43 | O=C1Nc2ccc(S(=O)(=O)Nc3ccc(C(F)(F)F)cc3)cc2C1=Cc1c[nH]c2ccccc12 [10717/E06] |  | 7.5
44 | CC(C)(C)c1cc(C=C2C(=O)Nc3c(Br)cc(Br)cc32)c(O)c(C(C)(C)C)c1 [10723/A11] | 41.5 | 42.9
45 | Cc1c(Br)ccc2c1C(=Cc1ccc(O)cc1O)C(=O)N2 [10723/C08] | 29.0 | -35.5
46 | Cc1cc(C=C2C(=O)Nc3ccc(I)cc32)ccc1O [10723/B06] | 58.8 | 31.8
47 | CC(=O)Oc1ccc(C=C2C(=O)Nc3ccc(I)cc32)cc1OC(C)=O [10723/B05] | 15.2 | -15.4
48 | O=C1Nc2c(Br)cc(Br)cc2C1=Cc1cc(O)c(O)c(Br)c1 [10723/A04] | 13.1 | 27.2
49 | CCOc1ccccc1C=C1C(=O)Nc2ccc(S(=O)(=O)Nc3ccc(C(F)(F)F)cc3)cc21 [10717/E02] |  | 17.9
50 | Cc1cc(C=C2C(=O)Nc3c(Br)cc(Br)cc32)ccc1O [10723/A06] | 43.6 | 8.6
51 | Cc1ccc(C=C2C(=O)Nc3ccc(S(=O)(=O)Nc4ccc(C(F)(F)F)cc4)cc32)s1 [10717/E07] |  | 15.3
52 | O=C1Nc2ccc(CCCl)cc2C1=Cc1cc(O)c(O)c(Br)c1 [10723/G04] | 21.4 | 8.7
53 | O=C1Nc2ccc(S(=O)(=O)Nc3ccc(C(F)(F)F)cc3)cc2C1=Cc1ccc(F)cc1 [10717/E05] |  | 13.2
54 | O=C1Nc2ccc(S(=O)(=O)Nc3ccc(C(F)(F)F)cc3)cc2C1=Cc1ccc(Br)cc1 [10717/E08] |  | 13.2
55 | O=C1Nc2ccc(S(=O)(=O)Nc3ccc(C(F)(F)F)cc3)cc2C1=Cc1cccs1 [10717/E03] |  | 19.0
56 | CNS(=O)(=O)c1ccc2c(c1)C(=Cc1cc(O)c(O)c(Br)c1)C(=O)N2 [10723/D04] | 31.8 | 15.2
57 | O=C1Nc2c(Br)cc(Br)cc2C1=Cc1ccc(O)c(O)c1O [10723/A02] | 64.4 | -5.5
58 | O=C1Nc2ccc(I)cc2C1=Cc1ccc(O)cc1O [10723/B08] | 56.1 | 1.0
59 | Cc1c(Br)ccc2c1C(=Cc1ccccc1Br)C(=O)N2 [10723/C07] | 27.6 | 20.9
60 | O=C1Nc2c(Br)cc(Br)cc2C1=Cc1ccc(O)cc1O [10723/A08] | 29.7 | -12.9
61 | Cc1cc(C=C2C(=O)Nc3ccc(CCCl)cc32)cc(C)c1O [10722/G07] | -3.7 | 8.0
62 | CNS(=O)(=O)c1ccc2c(c1)C(=Cc1cccc(OC)c1O)C(=O)N2 [10723/D03] | 8.2 | -14.7
